Assay results published in patent US10532066B2, “Surfactant lipids, compositions thereof, and uses thereof” (National Jewish Health, priority 2007, dated 2020).

Columns and labels:
U937 macrophages = assay: TNFα in U937 macrophages stimulated with smooth LPS, with SP-A and PtdGro; assay type: cell-based; settings: 100 ng/ml smooth LPS, 6 hours, SP-A 10 μg/ml, lipid 20 μg/ml
Method: U937 macrophages were stimulated with 100 ng/ml smooth LPS for 6 hours. The culture medium was harvested and assayed for the presence of TNFα by ELISA. Control cultures received no additions. SP-A was added as indicated at 10 μg/ml. Saturated-(16:0/16:0)-PtdGro was added at 20 μg/ml. Unsaturated-(18:1/18:1)-PtdGro was added at 20 μg/ml.

[1] = tested on: TNF-α stimulated macrophages; assay: IkBα degradation in TNF-α stimulated macrophages; assay type: cell-based; settings: TNF-α 10 ng/ml
Method: Protein synthesis was measured by determining [^3H]-Leucine incorporation into trichloroacetic acid precipitable material in the presence and absence of 200 μg/ml POPG. No changes in protein synthesis occurred over a 6 hr period in POPG treated U937 cells compared to untreated cells in 3 independent experiments. […] In these studies, macrophages were treated with TNF-α (10 ng/ml) and the degradation of IkBα was measured. […] Collectively, these studies indicate that the actions of the anionic lipids upon LPS signaling are specific.

MD-2 binding to sTLR4 = biological target: T1, MD-2 binding to sTLR4 (Homo sapiens, UniProt Q9Y6Y9); assay: Phospholipid competition for MD-2-sTLR4 binding
T1 construct: made in house; host or cells: baculovirus-insect cell expression system
T1 sequence (Q9Y6Y9 19-160): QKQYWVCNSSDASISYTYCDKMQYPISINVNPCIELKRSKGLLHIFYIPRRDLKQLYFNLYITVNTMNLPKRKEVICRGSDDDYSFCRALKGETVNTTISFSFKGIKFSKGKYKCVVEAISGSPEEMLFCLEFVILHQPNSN
Method: CD14 (2 μg) or sTLR4 (100 ng) in aliquots of 20 μl of buffer B were pipeted onto a 96-well plate, and the solvent evaporated using a warm air dryer. […] The amount of bound LBP or MD-2 was detected using specific antibodies.

TLR1 = biological target: T2, TLR1 (Mus musculus, UniProt Q9EPQ1); assay: TLR agonist TNFα production in RAW 264.7 cells, TLR1; assay type: cell-based; settings: Pam3Cys, 24 h
T2 construct: endogenous in cells; host or cells: RAW 264.7
Method: (§1) In this experiment, multiple TLRs were stimulated with defined TLR agonists for 24 h and the TNFα production was measured. In each case, the maximal stimulation by agonist is set at 100% and the antagonism by POPG is expressed as the relative % response. The Controls consist of no treatment, or treatment with POPG in the absence of agonist as indicated. The agonists for the TLRs consist of Pam3Cys for TLR1/2, Mycoplasma pneumoniae membranes as an agonist for TLR2, mycoplasma derived MALP2 as an agonist for TLR 2/6, double stranded RNA (poly IC) for TLR3, Gram-negative lipopolysaccharide for TLR4, and CpG rich DNA as an agonist for TLR9. The TLR4 panel also contains the antagonist polymyxin B (PB) for comparison with POPG.

TLR6 [2] = biological target: T3, TLR6 (Mus musculus, UniProt Q9EPW9); assay: TLR agonist TNFα production in RAW 264.7 cells, TLR6; assay type: cell-based; settings: MALP2, 24 h
T3 construct: endogenous in cells; host or cells: RAW 264.7
T3 sequence (Q9EPW9 28-795): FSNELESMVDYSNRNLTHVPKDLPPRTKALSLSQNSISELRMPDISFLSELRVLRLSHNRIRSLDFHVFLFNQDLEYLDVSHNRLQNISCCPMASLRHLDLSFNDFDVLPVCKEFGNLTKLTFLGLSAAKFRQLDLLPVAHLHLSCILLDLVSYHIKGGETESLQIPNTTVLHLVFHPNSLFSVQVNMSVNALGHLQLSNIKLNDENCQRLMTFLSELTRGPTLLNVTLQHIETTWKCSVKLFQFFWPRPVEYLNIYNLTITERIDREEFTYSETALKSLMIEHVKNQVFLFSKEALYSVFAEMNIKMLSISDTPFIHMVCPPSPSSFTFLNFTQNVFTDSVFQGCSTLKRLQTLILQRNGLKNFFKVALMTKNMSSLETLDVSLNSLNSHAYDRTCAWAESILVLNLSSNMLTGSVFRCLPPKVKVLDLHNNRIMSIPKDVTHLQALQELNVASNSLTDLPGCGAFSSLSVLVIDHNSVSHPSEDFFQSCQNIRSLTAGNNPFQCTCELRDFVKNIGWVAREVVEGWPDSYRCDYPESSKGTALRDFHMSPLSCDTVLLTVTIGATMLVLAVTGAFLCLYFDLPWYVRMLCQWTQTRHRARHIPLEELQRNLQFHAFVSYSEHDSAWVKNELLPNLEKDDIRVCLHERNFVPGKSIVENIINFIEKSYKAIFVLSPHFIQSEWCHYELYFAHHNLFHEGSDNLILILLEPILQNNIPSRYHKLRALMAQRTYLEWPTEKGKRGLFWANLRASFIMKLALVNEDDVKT
Method: as §1

TLR9 = biological target: T4, TLR9 (Mus musculus, UniProt Q9EQU3); assay: TLR agonist TNFα production in RAW 264.7 cells, TLR9; assay type: cell-based; settings: CpG rich DNA, 24 h
T4 construct: endogenous in cells; host or cells: RAW 264.7
T4 sequence (Q9EQU3 26-1032): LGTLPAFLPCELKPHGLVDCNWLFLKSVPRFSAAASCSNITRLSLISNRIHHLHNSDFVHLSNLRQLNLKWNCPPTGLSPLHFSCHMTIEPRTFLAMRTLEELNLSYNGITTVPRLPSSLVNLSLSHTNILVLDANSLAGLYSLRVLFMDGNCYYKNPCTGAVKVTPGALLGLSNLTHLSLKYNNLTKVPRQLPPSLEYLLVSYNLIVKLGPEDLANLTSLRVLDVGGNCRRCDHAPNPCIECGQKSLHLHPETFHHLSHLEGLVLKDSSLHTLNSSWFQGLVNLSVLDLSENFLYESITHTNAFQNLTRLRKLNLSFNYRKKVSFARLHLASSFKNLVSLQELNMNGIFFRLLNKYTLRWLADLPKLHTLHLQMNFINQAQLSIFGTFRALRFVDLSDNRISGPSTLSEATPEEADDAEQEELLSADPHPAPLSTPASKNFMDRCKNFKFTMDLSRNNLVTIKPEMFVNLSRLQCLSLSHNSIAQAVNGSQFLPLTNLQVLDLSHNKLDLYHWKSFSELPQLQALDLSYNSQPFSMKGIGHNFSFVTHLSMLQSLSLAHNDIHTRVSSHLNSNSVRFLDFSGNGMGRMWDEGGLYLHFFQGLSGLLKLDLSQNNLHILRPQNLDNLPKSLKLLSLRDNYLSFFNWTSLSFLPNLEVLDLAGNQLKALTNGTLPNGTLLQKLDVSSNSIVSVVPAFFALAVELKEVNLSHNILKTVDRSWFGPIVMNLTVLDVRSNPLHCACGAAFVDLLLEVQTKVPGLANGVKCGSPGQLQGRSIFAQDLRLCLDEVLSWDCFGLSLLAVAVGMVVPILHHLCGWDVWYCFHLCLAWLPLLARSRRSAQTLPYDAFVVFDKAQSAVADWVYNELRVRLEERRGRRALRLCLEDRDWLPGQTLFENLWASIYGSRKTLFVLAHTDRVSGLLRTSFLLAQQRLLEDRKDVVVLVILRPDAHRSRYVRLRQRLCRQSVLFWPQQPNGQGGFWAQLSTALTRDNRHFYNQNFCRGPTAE
Method: as §1

TLR6 [3] = biological target: T5, TLR6 (Homo sapiens, UniProt Q9Y2C9); assay: TLR agonist IL-8 production in BEAS2B epithelial cells, TLR6; assay type: cell-based; settings: MALP2, 48 h
T5 construct: endogenous in cells; host or cells: BEAS2B
T5 sequence (Q9Y2C9 32-796): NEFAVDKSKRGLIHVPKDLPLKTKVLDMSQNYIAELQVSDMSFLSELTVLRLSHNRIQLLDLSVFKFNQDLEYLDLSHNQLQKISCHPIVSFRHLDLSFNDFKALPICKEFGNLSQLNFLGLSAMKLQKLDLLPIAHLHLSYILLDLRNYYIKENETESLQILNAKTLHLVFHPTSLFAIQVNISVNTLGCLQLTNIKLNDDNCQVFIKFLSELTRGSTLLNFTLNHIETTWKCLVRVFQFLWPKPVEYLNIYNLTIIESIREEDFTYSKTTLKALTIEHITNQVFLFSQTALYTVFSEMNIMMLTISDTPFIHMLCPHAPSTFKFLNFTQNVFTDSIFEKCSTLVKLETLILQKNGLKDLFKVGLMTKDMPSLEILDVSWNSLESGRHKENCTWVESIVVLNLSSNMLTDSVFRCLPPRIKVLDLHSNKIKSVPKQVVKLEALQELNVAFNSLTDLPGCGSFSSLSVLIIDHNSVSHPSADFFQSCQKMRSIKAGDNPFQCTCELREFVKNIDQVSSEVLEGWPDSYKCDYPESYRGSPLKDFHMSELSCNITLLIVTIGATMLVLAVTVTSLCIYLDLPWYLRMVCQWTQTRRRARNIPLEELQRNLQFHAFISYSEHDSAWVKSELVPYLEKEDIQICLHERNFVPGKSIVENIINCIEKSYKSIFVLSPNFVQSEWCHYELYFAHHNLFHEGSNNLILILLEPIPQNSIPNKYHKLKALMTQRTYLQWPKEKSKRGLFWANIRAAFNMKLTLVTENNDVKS
Method: In this experiment, multiple TLRs were stimulated with defined TLR agonists for 48 h, and the IL-8 production was measured. In each case, the maximal stimulation by agonist is set at 100% and the antagonism by POPG or PI is expressed as the relative % response. The Controls consist of no treatment, or treatment with POPG, or phosphatidylcholine (POPC), or phosphatidylinositol (PI), in the absence of agonist as indicated. The agonists for the TLRs consist of Pam3Cys for TLR1/2, Mycoplasma pneumoniae membranes as an agonist for TLR2, Mycoplasma fermentans derived MALP2 as an agonist for TLR 2/6, double stranded RNA (poly IC) for TLR3, and bacterial flagellin (Fla) as an agonist for TLR5.
Monolayers of BEAS2B cells were challenged with the TLR1/2 agonist, Pam3Cys (25 ug/ml); the TLR 2/6 agonist MALP2 (10 ng/ml); the TLR2 agonist mycoplasma membrane (Mem) (1 ug/ml); the TLR3 agonist, poly I:C (0.1 ug/ml); and the TLR5 agonist, flagellin (100 ng/ml). For each agonist parallel incubations were performed containing 200 ug/ml POPG as liposomes, or 200 ug/ml POPG as nanodises as indicated.

Toll-like receptor 3 = biological target: T6, Toll-like receptor 3 (Homo sapiens, UniProt O15455); assay: polyIC IL-8 production in NHBE cells; assay type: cell-based; settings: 24 hr
T6 construct: endogenous in cells; host or cells: primary normal human bronchial epithelial (NHBE) cells
T6 sequence (O15455 24-904): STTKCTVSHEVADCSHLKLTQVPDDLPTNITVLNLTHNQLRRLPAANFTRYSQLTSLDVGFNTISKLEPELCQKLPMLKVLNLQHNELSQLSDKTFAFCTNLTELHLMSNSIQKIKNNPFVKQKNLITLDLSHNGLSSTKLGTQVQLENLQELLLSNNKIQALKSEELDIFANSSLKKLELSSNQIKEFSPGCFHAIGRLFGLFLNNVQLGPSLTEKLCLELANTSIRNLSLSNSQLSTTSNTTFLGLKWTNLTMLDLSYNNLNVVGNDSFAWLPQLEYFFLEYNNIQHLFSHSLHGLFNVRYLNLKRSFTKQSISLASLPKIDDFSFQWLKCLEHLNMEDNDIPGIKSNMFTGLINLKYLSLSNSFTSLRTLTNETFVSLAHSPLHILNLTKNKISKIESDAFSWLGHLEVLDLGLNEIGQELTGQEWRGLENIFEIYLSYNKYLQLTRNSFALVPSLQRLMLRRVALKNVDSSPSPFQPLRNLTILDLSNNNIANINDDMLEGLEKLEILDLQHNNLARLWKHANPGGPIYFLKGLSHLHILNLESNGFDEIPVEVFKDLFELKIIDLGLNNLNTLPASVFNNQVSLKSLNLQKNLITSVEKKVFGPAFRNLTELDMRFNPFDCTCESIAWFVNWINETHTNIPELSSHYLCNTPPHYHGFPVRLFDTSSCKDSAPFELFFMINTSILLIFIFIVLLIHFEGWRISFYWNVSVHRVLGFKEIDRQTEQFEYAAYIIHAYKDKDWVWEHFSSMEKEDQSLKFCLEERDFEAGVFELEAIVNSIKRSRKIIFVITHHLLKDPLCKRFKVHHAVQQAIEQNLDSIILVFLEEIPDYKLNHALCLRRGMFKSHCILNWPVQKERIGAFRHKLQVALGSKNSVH
Method: In this experiment, NHBE cells were stimulated with double stranded RNA (polyIC) and the IL-8 production was measured after an interval of 24 hr. The maximal stimulation by agonist is set at 100% and the antagonism by POPG is expressed as the relative % response. The Controls consist of no treatment, or treatment with POPG, in the absence of agonist as indicated.

TLR4 = biological target: T7, TLR4 (Homo sapiens, UniProt O00206); assay: TLR agonist IL-8 production in primary human neutrophils, TLR4; assay type: cell-based; settings: LPS, 5-24 h
T7 construct: multiple Toll-like receptors (TLRs) on primary human neutrophils; endogenous in cells; host or cells: primary human neutrophils
Method: (§2) In this experiment, multiple TLRs were stimulated with defined TLR agonists for 5-24 h as indicated, and the IL-8 production was measured. In each case the maximal stimulation by agonist is set at 100% and the antagonism by POPG is expressed as the relative % response. The Controls consist of no treatment, or treatment with POPG, in the absence of agonist as indicated. The agonists for the TLRs consist of Pam3Cys for TLR1/2, double stranded RNA (poly IC) for TLR3, Gram-negative lipopolysaccharide (LPS) for TLR4, and single stranded RNA (polyU) for TLR7/8.

multiple TLRs = assay: Activation of RAW 264.7 macrophages by multiple TLRs (TNFα, Example 8); assay type: cell-based; settings: 200 ug/ml POPG, 5 hours
sTLR4 = sTLR4 (Homo sapiens, UniProt O00206); assay: sTLR4 binding to solid phase POPG; settings: sTLR4 1 μg/ml
Chain of sTLR4 (O00206 24-631): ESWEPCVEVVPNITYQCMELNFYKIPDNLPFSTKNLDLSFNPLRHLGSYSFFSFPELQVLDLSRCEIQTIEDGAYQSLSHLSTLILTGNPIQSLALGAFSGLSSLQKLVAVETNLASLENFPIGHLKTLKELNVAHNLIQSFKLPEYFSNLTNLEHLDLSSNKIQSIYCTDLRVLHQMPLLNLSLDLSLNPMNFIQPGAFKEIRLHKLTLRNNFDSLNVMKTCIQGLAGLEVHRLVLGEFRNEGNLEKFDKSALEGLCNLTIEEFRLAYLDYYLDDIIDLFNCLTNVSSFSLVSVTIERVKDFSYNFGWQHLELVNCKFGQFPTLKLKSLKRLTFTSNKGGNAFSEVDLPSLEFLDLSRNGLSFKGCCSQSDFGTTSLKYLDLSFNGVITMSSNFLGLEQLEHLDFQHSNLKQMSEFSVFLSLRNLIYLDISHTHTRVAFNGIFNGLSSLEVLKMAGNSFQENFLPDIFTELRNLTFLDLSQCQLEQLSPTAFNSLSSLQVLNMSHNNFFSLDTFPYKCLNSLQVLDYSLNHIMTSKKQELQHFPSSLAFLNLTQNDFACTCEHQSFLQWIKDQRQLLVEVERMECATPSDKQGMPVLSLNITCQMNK
Method: (A) POPG (1.25 nmole) was placed onto microtiter wells and the solvent evaporated. After blocking nonspecific binding with buffer A, MD-2, sTLR4 and PstB2 (1 μg/ml) in buffer A were added and incubated at 37° C. for 1 h. The binding of recombinant proteins to POPG was detected using anti-His antibody. […] The data shown are the means±S.E. from three separate experiments each with duplicate determinations.

TLR2 = TLR2 (Homo sapiens, UniProt O60603); assay: TLR agonist IL-8 production in primary human neutrophils, TLR2; assay type: cell-based; design: endogenous in cells; host or cells: primary human neutrophils; settings: Pam3Cys, 5-24 h
Chain of TLR2 (O60603 21-784): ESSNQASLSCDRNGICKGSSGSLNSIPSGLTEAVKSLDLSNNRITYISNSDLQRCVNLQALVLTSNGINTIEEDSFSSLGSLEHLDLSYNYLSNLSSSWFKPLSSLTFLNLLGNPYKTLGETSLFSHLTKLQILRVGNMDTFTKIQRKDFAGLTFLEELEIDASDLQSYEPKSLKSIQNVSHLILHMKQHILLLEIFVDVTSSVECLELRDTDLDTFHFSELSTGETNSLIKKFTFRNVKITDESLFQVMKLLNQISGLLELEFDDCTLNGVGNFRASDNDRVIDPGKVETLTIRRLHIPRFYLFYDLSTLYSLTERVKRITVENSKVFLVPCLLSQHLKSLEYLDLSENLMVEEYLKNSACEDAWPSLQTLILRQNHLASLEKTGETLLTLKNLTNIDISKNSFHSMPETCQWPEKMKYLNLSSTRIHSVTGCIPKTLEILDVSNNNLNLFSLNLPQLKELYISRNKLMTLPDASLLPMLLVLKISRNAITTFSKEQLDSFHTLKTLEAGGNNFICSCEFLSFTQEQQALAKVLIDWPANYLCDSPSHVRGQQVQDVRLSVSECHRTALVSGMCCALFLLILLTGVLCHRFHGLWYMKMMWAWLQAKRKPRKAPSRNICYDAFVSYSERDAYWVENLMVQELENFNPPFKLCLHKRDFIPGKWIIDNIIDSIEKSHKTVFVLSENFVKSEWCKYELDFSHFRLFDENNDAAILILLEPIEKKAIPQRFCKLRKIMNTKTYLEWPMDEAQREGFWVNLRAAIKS
Method: as §2

Compound | blocking of the anti-inflammatory effects of SP-A (TNFα) (U937 macrophages) | IkBα degradation after TNF-α stimulation [1] | inhibition of the MD-2/TLR4 interaction (MD-2 binding to sTLR4; lipid competitor up to 200 μg/ml) | inhibition of the MD-2/TLR4 interaction (MD-2 binding to sTLR4; low levels of lipid competitor (20 μg/ml)) [%] | activity of TLR1 (TNFα production) (TLR1) | activity of TLR6 (TNFα production) (TLR6 [2]) | activity of TLR9 (TNFα production) (TLR9) | activity of TLR6 (IL-8 production) (TLR6 [3]) | activity of TLR3 (IL-8 production) (Toll-like receptor 3) | activity of TLR4 (IL-8 production) (TLR4) | activation of RAW 264.7 macrophages by multiple TLRs (TNFα) (multiple TLRs) | binding to sTLR4 (sTLR4) | activity of TLR2 (IL-8 production) (TLR2)
CCCCCCCCCCCCCCCC(=O)OCC(COP(=O)(O)OCC(O)CO)OC(=O)CCCCCCCCCCCCCCC (centres unmarked) [DPPG, dipalmitoyl-phosphatidylglycerol, reference compound] | does not block |  |  |  |  |  |  |  |  |  |  |  | 
CCCCCCCC/C=C\CCCCCCCC(=O)O[C@H](COC(=O)CCCCCCCCCCCCCCC)COP(=O)(O)OCC(O)CO (some centres unmarked) [POPG, palmitoyl-oleoyl-phosphatidylglycerol] |  | failed to alter | approximately 75% | 40 | inhibits | inhibits | not | inhibit | inhibits | inhibits | inhibits activation | not | inhibits
phosphatidylinositol [PI] |  |  |  |  |  |  |  | inhibit |  |  |  |  | 
